Assay results as given in ChEMBL document CHEMBL2203223, “Identification of novel mPGES-1 inhibitors through screening of a chemical library” (Bioorg Med Chem Lett, 2012).

Molecular target: T1, Prostaglandin E synthase (Homo sapiens) (UniProt O14684)
T1 sequence (whole entry): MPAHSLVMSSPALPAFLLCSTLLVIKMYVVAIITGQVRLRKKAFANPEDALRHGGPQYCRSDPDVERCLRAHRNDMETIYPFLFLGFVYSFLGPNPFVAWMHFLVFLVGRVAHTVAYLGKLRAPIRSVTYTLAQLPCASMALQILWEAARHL
Assay: Inhibition of microsomal PGES1 at 25 uM

Row | Compound | inhibition
1 | CNC(=O)/C(=N\OC)c1ccccc1O | > 80%
2 | CN1C(=O)C(N)NC(=O)c2ccccc21 (racemic) | > 80%
3 | O=C1Sc2ccccc2C1=O | > 80%
4 | COc1ccc(OC(=O)Nc2ccccc2)cc1 | > 80%

Molecular target: T2, Prostaglandin E synthase (Mus musculus) (UniProt Q9JM51)
T2 sequence (whole entry): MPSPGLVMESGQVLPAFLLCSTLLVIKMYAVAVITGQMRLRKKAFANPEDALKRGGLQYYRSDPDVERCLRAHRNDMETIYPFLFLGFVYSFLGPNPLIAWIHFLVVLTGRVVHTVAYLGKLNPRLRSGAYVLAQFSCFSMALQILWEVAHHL
Assay: Inhibition of microsomal PGES1 in mouse RAW264.7 cells assessed as inhibition of LPS-induced PGE2 production at 10 uM incubated for 1 hr prior to LPS challenge measured after 24 hrs by enzyme immunoassay
Assay type: cell-based

Row | Compound | inhibition
5 | O=C(Oc1ccccc1)N(NS(=O)(=O)c1ccccc1)c1ccccc1 | 93.3%

Molecular target: T1, Prostaglandin E synthase (Homo sapiens)
Assay: Inhibition of microsomal PGES1 at 10 uM

Row | Compound | inhibition
6 | Cc1cccc(NC(=S)N/N=C/c2cccc([N+](=O)[O-])c2)c1 | 90%
7 | CN1C(=O)C(NC(=O)Nc2ccccc2Cl)N(C)C(=O)c2ccccc21 (racemic) | 90%
8 | Cc1n[nH]c(=S)n(/N=C/c2cccc([N+](=O)[O-])c2)c1=O | 90%
9 | O=C1C(=O)N(c2ccccc2)c2ccccc21 | 90%
10 | O=C(C=C1c2ccccc2-c2ccccc21)NNC(=O)N(c1ccccc1)c1ccccc1 | 90%
11 | CNC(=O)/C(=N/OC)c1ccccc1CO/N=C(/C)c1cccc(O/C(F)=C(\c2ccc(OC)cc2)C(F)(F)F)c1 | 90%

Molecular target: T2, Prostaglandin E synthase (Mus musculus)
Assay: Inhibition of microsomal PGES1 in mouse RAW264.7 cells assessed as inhibition of LPS-induced PGE2 production at 1 uM incubated for 1 hr prior to LPS challenge measured after 24 hrs by enzyme immunoassay
Assay type: cell-based

Row | Compound | inhibition
12 | O=C(Oc1ccccc1)N(NS(=O)(=O)c1ccccc1)c1ccccc1 | 59.9%
